Source: patent US20100092559A1 (OsteoGeneX Inc., priority 2008, published 2010)

Tests used:
C57BL/6 mice = assay: Bone growth in four month old male C57BL/6 mice, daily i.p. for 30 days (uCT, histomorphometry, pQCT); assay type: in vivo, mouse
Procedure: Study endpoints included measurement of trabecular lumbar vertebrae 5 (LVB5) by uCT, showing 65% increase in bone volume over baseline at 75 mg/kg (FIG. 2).

Wnt pathway = Wnt pathway modulation to promote bone growth (FIG. 1); conditions: doses of 2.5 ng (low), 60 ng (medium), 125 ng (high)
mouse = assay: micro-CT bone formation assay in mice for SOST antagonist candidates; assay type: in vivo; conditions: test vs control solution, complete dosing schedule
Text: Compounds useful in the methods of the present invention can be identified via a variety of methods known to one of skill in the art. Several exemplary methods for identifying such antagonists are described herein, including cell-based and in vitro techniques (Journal of Bone and Mineral Research 2006, 21(11), 1738-1749). A general method of identifying SOST antagonists involves evaluating the effects of antagonist candidates on bone formation under controlled conditions. Preferably bone formation is determined using micro-CT techniques on live animals. Preferred animals include rodents, more preferred are primates. Femur, tibia and vertebrae bones are particularly useful subjects for such study.
Briefly, the test animal is treated with a predetermined dose of a SOST antagonist candidate. […]
Once the dosing schedule has been completed, both test and control animals are examined to determine the quantity of bone formation present. […] Where necessary, levels of bone formation can be calculated by determining the volume of bone formation present in each animal. […]
For example, the mouse test animal is treated with a predetermined dose of a SOST antagonist candidate for a complete dosing schedule. […] Once the dosing schedule has been completed, both test and control animals are examined with sacrifice using micro-CT to determine the quantity of bone formation present.

COc1cc2c(cc1O)C[C@H]1c3c(cc(O)c(OC)c3-2)CCN1C [(S)-boldine]
increase in BV/TV of femur over baseline controls, pQCT (C57BL/6 mice; 60 mg/kg): 8%
increase in bone volume over baseline, trabecular lumbar vertebrae 5 (LVB5) by uCT (C57BL/6 mice; 75 mg/kg i.p. daily for 30 days, male C57BL/6 mice, FIG. 2): 65%
increase in BV/TV in trabecular long bone over saline controls, histomorphometry (C57BL/6 mice; all animals in both L (0.75 mg/kg) and H (75 mg/kg) groups, i.p. daily 30 days, p=0.05): 78%
modulating the Wnt pathway to promote bone growth (Wnt pathway): modulating the Wnt pathway to promote bone growth
bone growth (quantity of bone formation by micro-CT) (mouse): promoting bone growth
